Measured values published in US20130317215A1, “STABLE SYNTHETIC INTERMEDIATE AND METHOD FOR MANUFACTURING SAME” (KYORIN PHARMACEUTICAL CO., LTD., priority 2010, published 2013).
Entries after “also recorded” stand apart in the source; their conditions may differ.

Tests used:
[1] = Change in physical properties during storage at room temperature (Test Example 1); type: physicochemical; details: for Physical properties, after 10 weeks: sealed in a glass bottle, stored at room temperature for 10 weeks
Description: The compound (5) was sealed in a glass bottle and stored at room temperature for 10 weeks. The compound (6) was sealed in a glass bottle and stored at room temperature for 19 months.

[2] = Storage stability at room temperature, chemical purity by HPLC (Test Example 2); type: physicochemical
Method: The compounds (5) and (6) were each sealed in a glass bottle and stored at room temperature. At this time, the chemical purity of each compound was measured. After 6 weeks of storage and after 10 weeks of storage, the compound (5) was measured. After 19 months of storage, the compound (6) was measured. The chemical purity was represented by proportions of each compound and a degraded substance (compound (8)), calculated from area ratios measured by HPLC. HPLC measurement conditions are shown below. The chemical purity of the compound (6) was calculated on the basis of the peak of the compound (5).
Measurement wavelength: 220 nm
Column: TSKgel Octyl-80Ts, 4.6 mm I.D.×150 mm
Column temperature: 40° C.
Mobile phase A: acetonitrile
Mobile phase B: diluted phosphoric acid (1→1,000)

CCc1cc(OC)cc(N)c1C(=O)O [Compound (5)]
Physical properties, in synthesis ([1]; compound (5), before storage): WHITE POWDER
Physical properties, after 10 weeks [1]: YELLOW SEMI-SOLID
Physical properties, after 10 weeks ([1]; listed as compound (5)): the physical properties were changed; also recorded: yellow semi-solid
Proportion of the compound degraded ([2]; after 10 weeks of storage at room temperature): ≥ 50%
HPLC purity, peak Compound (5), after 6 weeks ([2]; sealed glass bottle, room temperature, 6 weeks, HPLC area ratio): 94.1%
HPLC purity, peak Compound (5), after 10 weeks ([2]; sealed glass bottle, room temperature, 10 weeks, HPLC area ratio): 38.4%
